# Source: patent US20200187505A1, “SEED, SOIL, AND PLANT TREATMENT COMPOSITIONS” (RALCO NUTRITION, INC., priority 2017, published 2020)
# Tested on: soy
# Settings: in-furrow, five grams per acre, versus check; for average soybean seed weight per pot: FIG. 49
# Source text: The Generate was applied at a rate one pint per acre. The remaining compositions were applied at a rate of five grams per acre. The soy was planted in May and harvested in October, with fertilizer applications in June and July.
substance,measurement,setting,value
nickel lactate,total average soybean seed weight,FIG. 48,increase total average soybean seed weight above the check
same,average soybean seed weight per pot,,increase seed weight over the check
nickel ammonium citrate,average soybean seed weight per pot,,increase seed weight over the check
